From PubChem BioAssay (NCI)
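Protocol summary: plate cells (96-well), add compound at 5 concentrations, incubate 48 h, interpolate endpoints linearly. Here, GI50 denotes the concentration required for 50% inhibition of growth. Definition used: TGI = concentration required for complete inhibition of growth.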

Key:
Experiment in all cases: DTP human tumour cell line panel, 48 h
NCI-H23 lung = system: NCI-H23 lung
NCI-H460 lung = system: NCI-H460 lung
NCI-H522 lung = system: NCI-H522 lung
NCI/ADR-RES ovarian = system: NCI/ADR-RES ovarian
OVCAR-3 ovarian = system: OVCAR-3 ovarian
OVCAR-4 ovarian = system: OVCAR-4 ovarian
OVCAR-5 ovarian = system: OVCAR-5 ovarian
OVCAR-8 ovarian = system: OVCAR-8 ovarian
PC-3 prostate = system: PC-3 prostate
RPMI-8226 leukemia = system: RPMI-8226 leukemia
RXF 393 renal = system: RXF 393 renal
SF-268 CNS = system: SF-268 CNS
SF-295 CNS = system: SF-295 CNS
SF-539 CNS = system: SF-539 CNS
SK-MEL-2 melanoma = system: SK-MEL-2 melanoma
SK-MEL-28 melanoma = system: SK-MEL-28 melanoma
SK-MEL-5 melanoma = system: SK-MEL-5 melanoma
SK-OV-3 ovarian = system: SK-OV-3 ovarian
SN12C renal = system: SN12C renal
SNB-19 CNS = system: SNB-19 CNS
SNB-75 CNS = system: SNB-75 CNS
SR leukemia = system: SR leukemia
SW-620 colon = system: SW-620 colon
T-47D breast = system: T-47D breast
TK-10 renal = system: TK-10 renal
U251 CNS = system: U251 CNS
UACC-257 melanoma = system: UACC-257 melanoma
UACC-62 melanoma = system: UACC-62 melanoma
UO-31 renal = system: UO-31 renal

Compound O=C(NCCN1CCOCC1)Nc1ccc(-c2cc3c(Nc4ccc(Oc5cccc(C(F)(F)F)c5)c(Cl)c4)ncnc3s2)cc1 has a TGI (NCI-H23 lung) of 5760 nM, a GI50 (NCI-H460 lung) of 1120 nM and a TGI (NCI-H460 lung) of 2540 nM. For the same compound, the GI50 (NCI-H522 lung) was 910 nM, the TGI (NCI-H522 lung) was 2260 nM and the GI50 (NCI/ADR-RES ovarian) was 6740 nM. For the same compound, the TGI (NCI/ADR-RES ovarian) was 19900 nM, the GI50 (OVCAR-3 ovarian) was 2340 nM and the TGI (OVCAR-3 ovarian) was 8540 nM. The GI50 (OVCAR-4 ovarian) was 3260 nM, the TGI (OVCAR-4 ovarian) was 11500 nM and the GI50 (OVCAR-5 ovarian) was 1660 nM. The TGI (OVCAR-5 ovarian) was 6320 nM, the GI50 (OVCAR-8 ovarian) was 2400 nM and the TGI (OVCAR-8 ovarian) was 9880 nM. The GI50 (PC-3 prostate) was 1410 nM, the TGI (PC-3 prostate) was 5600 nM and the GI50 (RPMI-8226 leukemia) was 1400 nM. It also gave a TGI (RPMI-8226 leukemia) of 3540 nM, a GI50 (RXF 393 renal) of 653 nM and a TGI (RXF 393 renal) of 2550 nM. The GI50 (SF-268 CNS) was 1760 nM, the TGI (SF-268 CNS) was 7510 nM and the GI50 (SF-295 CNS) was 936 nM. For the same compound, the TGI (SF-295 CNS) was 2000 nM, the GI50 (SF-539 CNS) was 825 nM and the TGI (SF-539 CNS) was 2010 nM. The GI50 (SK-MEL-2 melanoma) was 1250 nM, the TGI (SK-MEL-2 melanoma) was 2980 nM and the GI50 (SK-MEL-28 melanoma) was 809 nM. The TGI (SK-MEL-28 melanoma) was 1600 nM, the GI50 (SK-MEL-5 melanoma) was 916 nM and the TGI (SK-MEL-5 melanoma) was 1710 nM. The GI50 (SK-OV-3 ovarian) was 1880 nM, the TGI (SK-OV-3 ovarian) was 7490 nM and the GI50 (SN12C renal) was 1970 nM. The TGI (SN12C renal) was 8210 nM, the GI50 (SNB-19 CNS) was 2410 nM and the TGI (SNB-19 CNS) was 8520 nM. It also gave a GI50 (SNB-75 CNS) of 642 nM, a TGI (SNB-75 CNS) of 1900 nM and a GI50 (SR leukemia) of 1470 nM. For the same compound, the TGI (SR leukemia) was 27600 nM, the GI50 (SW-620 colon) was 1010 nM and the TGI (SW-620 colon) was 2060 nM. It also gave a GI50 (T-47D breast) of 1070 nM, a TGI (T-47D breast) of 3210 nM and a GI50 (TK-10 renal) of 2780 nM. It also gave a TGI (TK-10 renal) of 9080 nM, a GI50 (U251 CNS) of 769 nM and a TGI (U251 CNS) of 2430 nM. For the same compound, the GI50 (UACC-257 melanoma) was 927 nM, the TGI (UACC-257 melanoma) was 1840 nM and the GI50 (UACC-62 melanoma) was 1000 nM. It also gave a TGI (UACC-62 melanoma) of 2270 nM, a GI50 (UO-31 renal) of 801 nM and a TGI (UO-31 renal) of 1750 nM.
